{"source": "ChEMBL document CHEMBL3046877", "about": "“Synthesis and bioevaluation of novel arylnaphthalene lignans as anticancer agents” (Med Chem Res, 2013)", "key": {"HEK293": {"system": "HEK293", "test": "Cytotoxicity against Homo sapiens (human) HEK293 cells assessed as decrease in cell growth after 3 days by MTT assay", "format": "cell-based", "conditions": "HEK293, 72 h"}, "HCT-116": {"system": "HCT-116", "test": "Anticancer activity against Homo sapiens (human) HCT116 cells assessed as decrease in cell growth after 3 days by MTT assay", "format": "functional, cell-based", "conditions": "HCT-116, 72 h"}, "A549": {"system": "A549", "test": "Anticancer activity against Homo sapiens (human) A549 cells assessed as decrease in cell growth after 3 days by MTT assay", "format": "functional, cell-based", "conditions": "A549, 72 h"}, "KB [1]": {"system": "KB", "test": "Anticancer activity against Homo sapiens (human) KB cells assessed as decrease in cell growth after 3 days by MTT assay", "format": "functional, cell-based", "conditions": "72 h"}, "SW480": {"system": "SW480", "test": "Anticancer activity against Homo sapiens (human) SW480 cells assessed as decrease in cell growth after 3 days by MTT assay", "format": "functional, cell-based", "conditions": "SW480, 72 h"}, "KB [2]": {"system": "KB", "test": "Induction of apoptosis in Homo sapiens (human) KB cells assessed as plasma membrane blebbing at 5 to 10 uM after 72 hr by AO/EB double staining based fluorescence microscopic analysis", "format": "functional, cell-based"}, "KB [3]": {"system": "KB", "test": "Induction of apoptosis in Homo sapiens (human) KB cells assessed as decrease in Bcl-2 expression at 5 to 15 uM after 72 hr by western blot analysis", "format": "functional, cell-based"}, "KB [4]": {"system": "KB", "test": "Induction of apoptosis in Homo sapiens (human) KB cells assessed as increase in Bax expression at 5 to 15 uM after 72 hr by western blot analysis", "format": "functional, cell-based"}}, "note": "pIC50: −log10 of the molar value. The source made the active and inactive calls. The rule behind the calls is not given here.", "data": [{"compound": "COc1cc([C@@H]2c3cc4c(cc3[C@@H](O[C@@H]3O[C@@H]5CO[C@@H](C)O[C@H]5[C@H](O)[C@H]3O)[C@H]3COC(=O)[C@H]23)OCO4)cc(OC)c1O", "note": "[ETOPOSIDE]", "values": [{"measurement": "pIC50", "setting": "HEK293", "result": "< 4.00"}]}, {"compound": "COc1cc2c(O)c3c(c(-c4ccc5c(c4)OCO5)c2cc1OC)C(=O)OC3", "note": "[DIPHYLLIN]", "values": [{"measurement": "pIC50", "setting": "HEK293", "result": "< 4.00"}, {"measurement": "pIC50", "setting": "HCT-116", "result": 4.31}]}, {"compound": "COc1cc2c(O)c3c(c(-c4ccccc4)c2cc1OC)C(=O)OC3", "values": [{"measurement": "pIC50", "setting": "A549", "result": "< 4.00"}, {"measurement": "pIC50", "setting": "HEK293", "result": "< 4.00"}, {"measurement": "pIC50", "setting": "KB [1]", "result": "< 4.00"}, {"measurement": "pIC50", "setting": "HCT-116", "result": "< 4.00"}, {"measurement": "pIC50", "setting": "SW480", "result": "< 4.00"}]}, {"compound": "COc1ccc(-c2c3c(c(O)c4cc(OC)c(OC)cc24)COC3=O)cc1OC", "values": [{"measurement": "pIC50", "setting": "A549", "result": "< 4.00"}, {"measurement": "pIC50", "setting": "HEK293", "result": "< 4.00"}, {"measurement": "pIC50", "setting": "KB [1]", "result": "< 4.00"}, {"measurement": "pIC50", "setting": "HCT-116", "result": "< 4.00"}, {"measurement": "pIC50", "setting": "SW480", "result": "< 4.00"}]}, {"compound": "COc1cc2c(O)c3c(c(-c4cc(OC)c(OC)c(OC)c4)c2cc1OC)C(=O)OC3", "values": [{"measurement": "pIC50", "setting": "A549", "result": 4.01}, {"measurement": "pIC50", "setting": "HEK293", "result": "< 4.00"}, {"measurement": "pIC50", "setting": "KB [1]", "result": 4.63}, {"measurement": "pIC50", "setting": "HCT-116", "result": "< 4.00"}, {"measurement": "pIC50", "setting": "SW480", "result": "< 4.00"}]}, {"compound": "COc1ccc(-c2c3c(c(O)c4cc(OC)c(OC)cc24)COC3=O)cc1", "values": [{"measurement": "pIC50", "setting": "A549", "result": "< 4.00"}, {"measurement": "pIC50", "setting": "HEK293", "result": "< 4.00"}, {"measurement": "pIC50", "setting": "KB [1]", "result": 4.69}, {"measurement": "pIC50", "setting": "HCT-116", "result": "< 4.00"}, {"measurement": "pIC50", "setting": "SW480", "result": "< 4.00"}]}, {"compound": "COc1cc2c(O)c3c(c(-c4ccc(C)cc4)c2cc1OC)C(=O)OC3", "values": [{"measurement": "pIC50", "setting": "A549", "result": "< 4.00"}, {"measurement": "pIC50", "setting": "HEK293", "result": "< 4.00"}, {"measurement": "pIC50", "setting": "KB [1]", "result": 4.82}, {"measurement": "pIC50", "setting": "HCT-116", "result": "< 4.00"}, {"measurement": "pIC50", "setting": "SW480", "result": "< 4.00"}]}, {"compound": "COc1cc2c(O)c3c(c(-c4ccccc4OC)c2cc1OC)C(=O)OC3", "values": [{"measurement": "pIC50", "setting": "A549", "result": "< 4.00"}, {"measurement": "pIC50", "setting": "HEK293", "result": "< 4.00"}, {"measurement": "pIC50", "setting": "KB [1]", "result": "< 4.00"}, {"measurement": "pIC50", "setting": "HCT-116", "result": "< 4.00"}, {"measurement": "pIC50", "setting": "SW480", "result": 4.64}]}, {"compound": "COc1cccc(-c2c3c(c(O)c4cc(OC)c(OC)cc24)COC3=O)c1", "values": [{"measurement": "pIC50", "setting": "A549", "result": "< 4.00"}, {"measurement": "pIC50", "setting": "HEK293", "result": "< 4.00"}, {"measurement": "pIC50", "setting": "KB [1]", "result": "< 4.00"}, {"measurement": "pIC50", "setting": "HCT-116", "result": 4.05}, {"measurement": "pIC50", "setting": "SW480", "result": "< 4.00"}]}, {"compound": "COc1ccc(OC)c(-c2c3c(c(O)c4cc(OC)c(OC)cc24)COC3=O)c1", "values": [{"measurement": "pIC50", "setting": "A549", "result": "< 4.00"}, {"measurement": "pIC50", "setting": "HEK293", "result": "< 4.00"}, {"measurement": "pIC50", "setting": "KB [1]", "result": "< 4.00"}, {"measurement": "pIC50", "setting": "HCT-116", "result": "< 4.00"}, {"measurement": "pIC50", "setting": "SW480", "result": "< 4.00"}]}, {"compound": "COc1cc(OC)cc(-c2c3c(c(O)c4cc(OC)c(OC)cc24)COC3=O)c1", "values": [{"measurement": "Activity", "setting": "KB [2]", "result": "Active"}, {"measurement": "pIC50", "setting": "A549", "result": "< 4.00"}, {"measurement": "inhibition", "setting": "KB [3]", "result": "Active"}, {"measurement": "Activity", "setting": "KB [4]", "result": "Active"}, {"measurement": "pIC50", "setting": "HEK293", "result": "< 4.00"}, {"measurement": "pIC50", "setting": "KB [1]", "result": 5.29}, {"measurement": "pIC50", "setting": "HCT-116", "result": 4.53}, {"measurement": "pIC50", "setting": "SW480", "result": 5.25}]}]}
